The source of these data is patent US4705805A, “Antithrombotic agent” (priority 1978, dated 1987).

Values after ≈ are worked out from the molar mass of the structure shown. Some results are limits rather than exact numbers.

Data set [1] has as its system rabbit blood platelets (platelet rich plasma), collagen-induced aggregation. The experiment in a line: inhibition of platelet aggregation in rabbit platelet rich plasma (in vitro), induced by collagen. The conditions noted are these: Oryctolagus cuniculus, Platelet, rabbit PRP. The class given is cell-based. The gist of the method: (§1)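 PRP from citrated rabbit carotid blood (1,000 rpm, 15 min) preincubated 1 min with test compound in saline before ADP or collagen is added. Aggregation followed by light transmission in an aggregometer; % inhibition derived from maximum aggregation with sample versus saline.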

The test system of data set [2] is human platelet rich plasma, collagen-induced aggregation. The experiment in a line: inhibition of platelet aggregation in human platelet rich plasma, induced by collagen. The class given is cell-based. The conditions noted are these: human PRP, read-out: percentage inhibition, collagen. The essentials: (§2)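 Human platelet-rich plasma (citrated blood, spun 1,000 rpm 15 min) preincubated 1 min with test compound in saline, then challenged with collagen or ADP. Aggregation followed by light transmission in an aggregometer; % inhibition from maximal aggregation versus saline control.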

The nature of data set [3]: solubility. The data set is classed as physicochemical.
For data set [4], the system named is mice, death by ADP injection. Nature of the data set: prevention of death of mice by ADP addition (in vivo), oral administration. The conditions noted are these: oral; 100 mg/Kg; ADP i.v. after one hour. As to the method: (§3) In this example, prevention of death of mice by ADP addition (in vivo) is tested. It is shown that intravenous administration of a great amount of ADP to mice causes aggregated blood platelets to be captured in the pulmonary capillaries so that the mice die of respiratory distress.
The test is carried out according to Roba's method. [Eur. J. Pharmacol. 37, 265-274 (1976)]. Specifically, CMC solution (0.3%) and CMC suspension containing the test compound and control compounds are orally administered to mice in a ratio of 0.1 ml/10 g (body weight). After one hour, an aqueous solution of ADP (60 mg/ml) is injected into the tail vein in a volume of 0.1 ml/10 g (body weight) every 10 seconds and the mortality is calculated.

The subject of data set [5] is rabbit blood platelets (platelet rich plasma), ADP-induced aggregation. The experiment in a line: inhibition of platelet aggregation in rabbit platelet rich plasma (in vitro), induced by ADP. The data set is classed as cell-based. The conditions noted are these: Oryctolagus cuniculus, Platelet, rabbit PRP, ADP 10^-5 M. The gist of the method:
as §1

For data set [6], the system named is rabbit blood platelets (platelet rich plasma), thrombin-induced aggregation. Nature of the data set: inhibition of platelet aggregation in rabbit platelet rich plasma (in vitro), induced by thrombin. The data set is classed as cell-based. The conditions noted are these: Oryctolagus cuniculus, rabbit PRP, read-out: percentage of inhibition, thrombin. As to the method: In this example, the inhibition of platelet aggregation in rabbit platelet rich plasma (in vitro) is tested.
The thus obtained blood is centrifuged at 1,000 rpm for 15 minutes to obtain platelet rich plasma (referred to as "PRP" hereinafter). The aggregation of blood platelets is observed using an aggregometer (made by Bryston Co.) and the degree of aggregation after the addition of aggregation promoting substances is measured by nephelometry, i.e., through increase in light transmission.
The PRP (0.9 ml) is placed in a silicon-coated cuvett of the aggregometer. Then, 0.05 ml of physiological saline solution containing various concentrations of test reagents or control reagents is added and the mixture is allowed to stand for one minute. Compounds promoting aggregation are then added and the absorbancy of the solution is measured and the percent inhibition of aggregation is calculated according to the following equation: [formula] C: Transmittancy showing the maximum percent aggregation by physiological saline solution
D: Transmittancy showing the maximum percent aggregation by sample
Test for the inhibition of platelet aggregation induced by ADP, collagen and thrombin.

The subject of data set [7] is mice, death by ADP injection. Nature of the data set: prevention of death of mice by ADP addition (in vivo), intravenous administration. The conditions noted are these: 10 mg/Kg, ADP-Na ten minutes thereafter. As to the method: as §3
In order to check the effect by intravenous administration, physiological saline solution and physiological saline solution containing the test reagents (0.5 mg/ml) is injected into the tail vein in a volume of 0.2 ml/10 g (body weight). Ten minutes thereafter (10 mg/kg) ADP-Na is injected into the tail vein as in the oral test, and the mortality is calculated.

Data set [8] has as its system human platelet rich plasma, ADP-induced aggregation. Nature of the data set: inhibition of platelet aggregation in human platelet rich plasma, induced by ADP. The conditions noted are these: human PRP, read-out: percentage inhibition, ADP. The data set is classed as cell-based. The essentials:
as §2

Data set [9] in a line: acute toxicity, Behrens-Karber's method. The data set is classed as in vivo. The conditions noted are these: in vivo; mouse, oral. As to the method:
In this example, the acute toxicity of compounds of the invention is determined by Behrens-Karber's method using, 5 male dd-strain for each group weighing 20±1 g. A 0.3% CMC suspension of the test compound (concentration of the test compound: 100 mg/ml) is then orally administered to each mouse.

As usually defined, the IC50 is the point on the concentration scale where inhibition reaches its midpoint. A high value points to weaker potency. By inhibition is commonly meant the percentage by which the read-out fell short of the control. A word on the LD50: it is the dose at which mortality reaches 50%. A higher LD50 goes with a less toxic substance.

Consider `O=C(c1ccccc1SSc1ccccc1C(=O)N1CCN(Cc2ccccc2)CC1)N1CCN(Cc2ccccc2)CC1` [Compound IV, 2,2'-dithiobis(N'-benzylbenzpiperazide)], for which the IC50 in [1] and in data set [5] was 9.8 µg/mL (≈ 15.7 µM) each time. The inhibition at 3 µg/mL in data set [1] (3 μg/ml, read-out: percentage of inhibition, collagen) turned out to be 7.6%; in [5] (3 μg/ml, read-out: percentage of inhibition, ADP) it was 28%; in data set [6] (3 μg/ml) it was 31%. Besides, the inhibition at 10 µg/mL in data set [1] (10 μg/ml, read-out: percentage of inhibition, collagen) was 46.5%; in data set [5] (10 μg/ml, read-out: percentage of inhibition, ADP) it was 44.7%; in data set [6] (10 μg/ml), 58%. Further, the inhibition at 30 µg/mL in data set [1] (30 μg/ml, read-out: percentage of inhibition, collagen) amounted to 100%; in data set [2] (30 μg/ml) it was 12%; in [5] (30 μg/ml, read-out: percentage of inhibition, ADP), 83.3%; in data set [6] (30 μg/ml), 84%; in [8] (30 μg/ml) it was 0%. Further, the inhibition at 100 µg/mL in data set [2] (100 μg/ml) was 75%; in [8] (100 μg/ml), 58%. Also, the “Solubility in ether, benzene, chloroform” value in data set [3] (ether, benzene, chloroform, and the like) was “Insoluble”. Further, the “Solubility in methanol, ethanol” value in data set [3] (methanol, ethanol, and the like) is “slightly soluble”. Further, in [3] (water, etc.), the Solubility in water entry is on record as “Readily soluble”. The figures for the Mortality in data set [4] and in [7] were 30% and 50%, respectively. For the same molecule, the “Score (mortality)” value is 3/10 in [4] and 5/10 in [7]. Also, the LD50 in [9] is no less than 4000 mg/kg.
